What was measured:
Candida albicans [1] = experiment: Antifungal activity against Candida albicans SC5314 cultured in RPMI 1640 media after 24 hrs by broth microdilution method; assay type: functional; details: SC5314, 24 h
Candida albicans [2] = experiment: Antifungal activity against Candida albicans SC5314 cultured in YNB media after 24 hrs by broth microdilution method; assay type: functional; details: SC5314, 24 h
[3] = Inhibition of Candida albicans AHAS catalytic subunit using pyruvate as substrate measured after 30 mins by colorimetric method

SMILES	MIC (Candida albicans [1]) [µg/mL]	MIC (Candida albicans [2]) [µg/mL]	Ki [3] [nM]	pKi [3]
COc1cc(Br)nc(NC(=O)[N-]S(=O)(=O)Oc2ccccc2OCCCl)n1.[Na+]	> 100	> 100	69	7.13
COc1cc(I)nc(NC(=O)[N-]S(=O)(=O)Oc2ccccc2[N+](=O)[O-])n1.[Na+]	> 100	40	523	6.28
Cc1cc(Cl)nc(NC(=O)[N-]S(=O)(=O)Oc2ccccc2C(=O)OC(C)C)n1.[Na+]	> 100	> 100	22900	4.64
COc1cc(Cl)nc(NC(=O)[N-]S(=O)(=O)Oc2ccccc2OCCI)n1.[Na+]	> 100	> 100	583	6.23
COc1cc(C)nc(NC(=O)[N-]S(=O)(=O)Oc2ccccc2C(=O)OC(C)C)n1.[Na+]	> 100	80	268	–
COc1cc(C)nc(NC(=O)[N-]S(=O)(=O)Oc2ccccc2OCCI)n1.[Na+]	> 100	10	91	7.04
CCOC(=O)c1ccccc1OS(=O)(=O)[N-]C(=O)Nc1nc(C)cc(Cl)n1.[Na+]	> 100	> 100	37.1	7.43
COc1cc(Br)nc(NC(=O)[N-]S(=O)(=O)Oc2ccccc2C(=O)OC(C)C)n1.[Na+]	> 100	> 100	1510	5.82
Cc1cc(Cl)nc(NC(=O)[N-]S(=O)(=O)Oc2ccccc2C(=O)OCCCl)n1.[Na+]	> 100	> 100	761	6.09
COC(=O)c1ccccc1S(=O)(=O)NC(=O)Nc1nccc(C)n1 [MONOSULFURON ESTER]	–	–	16800	–
COc1cc(I)nc(NC(=O)[N-]S(=O)(=O)Oc2ccccc2OCCI)n1.[Na+]	> 100	20	637	6.18
COc1cc(Cl)nc(NC(=O)[N-]S(=O)(=O)Oc2ccccc2OCCCl)n1.[Na+]	> 100	> 100	87	7.06
COc1cc(C)nc(NC(=O)[N-]S(=O)(=O)Oc2ccccc2OCCCl)n1.[Na+]	25	10	78	7.1
CCOC(=O)c1ccc(OS(=O)(=O)[N-]C(=O)Nc2nc(OC)cc(OC)n2)cc1.[Na+]	> 100	> 100	> 50000	–
CCOC(=O)c1ccc(OS(=O)(=O)[N-]C(=O)Nc2nc(Cl)cc(OC)n2)cc1.[Na+]	> 100	> 100	15400	4.81
Cc1cc(Cl)nc(NC(=O)[N-]S(=O)(=O)Oc2ccccc2[N+](=O)[O-])n1.[Na+]	> 100	40	103	6.99
CCOC(=O)c1cccc(OS(=O)(=O)[N-]C(=O)Nc2nc(C)cc(OC)n2)c1.[Na+]	> 100	> 100	1640	5.78
COc1cc(I)nc(NC(=O)[N-]S(=O)(=O)Oc2ccccc2OCCCl)n1.[Na+]	100	10	68	7.16
COC(=O)c1ccccc1OS(=O)(=O)[N-]C(=O)Nc1nc(C)cc(Cl)n1.[Na+]	> 100	> 100	85.5	7.06

SMILES	MIC (Candida albicans [1]) [µg/mL]	MIC (Candida albicans [2]) [µg/mL]	Ki [3] [nM]	pKi [3]
COc1cc(OC)nc(NC(=O)[N-]S(=O)(=O)Oc2ccccc2C(=O)OCC(F)(F)F)n1.[Na+]	> 100	10	78	7.11
COc1cc(OC)nc(NC(=O)[N-]S(=O)(=O)Oc2ccccc2C(=O)Oc2ccccc2)n1.[Na+]	> 100	> 100	5860	5.23
Cc1cc(C)nc(NC(=O)[N-]S(=O)(=O)Oc2ccccc2C(=O)OCCCl)n1.[Na+]	> 100	> 100	3360	5.48
Cc1cc(Cl)nc(NC(=O)[N-]S(=O)(=O)Oc2ccccc2C(=O)Oc2ccccc2)n1.[Na+]	> 100	> 100	> 50000	–
COc1cc(Cl)nc(NC(=O)[N-]S(=O)(=O)Oc2ccccc2C(=O)OC(C)C)n1.[Na+]	> 100	> 100	4560	5.46
COc1cc(C)nc(NC(=O)[N-]S(=O)(=O)Oc2ccc([N+](=O)[O-])cc2)n1.[Na+]	> 100	> 100	> 50000	–
Cc1cc(C)nc(NC(=O)[N-]S(=O)(=O)Oc2ccc([N+](=O)[O-])cc2)n1.[Na+]	> 100	> 100	5660	5.24
COc1cc(Br)nc(NC(=O)[N-]S(=O)(=O)Oc2ccccc2[N+](=O)[O-])n1.[Na+]	> 100	> 100	247	6.6
Cc1cc(Cl)nc(NC(=O)[N-]S(=O)(=O)Oc2ccc([N+](=O)[O-])cc2)n1.[Na+]	> 100	> 100	> 50000	–
CCOC(=O)c1ccc(OS(=O)(=O)[N-]C(=O)Nc2nc(C)cc(Cl)n2)cc1.[Na+]	> 100	> 100	> 50000	–
COc1cc(C)nc(NC(=O)[N-]S(=O)(=O)Oc2ccccc2C(=O)OCC(F)(F)F)n1.[Na+]	> 100	20	310	6.51
COc1cc(Cl)nc(NC(=O)[N-]S(=O)(=O)Oc2ccccc2C(=O)Oc2ccccc2)n1.[Na+]	> 100	> 100	25400	4.58
Cc1cc(Cl)nc(NC(=O)[N-]S(=O)(=O)Oc2ccccc2OCCI)n1.[Na+]	> 100	> 100	885	6.05
CCOC(=O)c1cccc(OS(=O)(=O)[N-]C(=O)Nc2nc(C)cc(Cl)n2)c1.[Na+]	> 100	> 100	> 50000	–
Cc1cc(C)nc(NC(=O)[N-]S(=O)(=O)Oc2ccccc2OCCCl)n1.[Na+]	> 100	> 100	822	6.08
Cc1cc(C)nc(NC(=O)[N-]S(=O)(=O)Oc2ccccc2OCCI)n1.[Na+]	> 100	> 100	3570	5.45
COc1cc(Br)nc(NC(=O)[N-]S(=O)(=O)Oc2ccccc2OCCI)n1.[Na+]	> 100	> 100	478	6.33
COc1cc(Cl)nc(NC(=O)[N-]S(=O)(=O)Oc2ccccc2C(=O)OCC(F)(F)F)n1.[Na+]	> 100	> 100	265	6.57
Cc1cc(Cl)nc(NC(=O)[N-]S(=O)(=O)Oc2ccccc2OCCCl)n1.[Na+]	> 100	> 100	95	7.02

Second part, led by results:

MIC (Candida albicans [1]) [µg/mL]	MIC (Candida albicans [2]) [µg/mL]	SMILES	Ki [3] [nM]	pKi [3]
> 100	> 100	COc1cc(Br)nc(NC(=O)[N-]S(=O)(=O)Oc2ccccc2C(=O)OCCCl)n1.[Na+]	379	6.41
> 100	> 100	COC(=O)c1ccccc1OS(=O)(=O)[N-]C(=O)Nc1nc(Br)cc(OC)n1.[Na+]	643	6.28
> 100	> 100	COC(=O)c1ccccc1OS(=O)(=O)[N-]C(=O)Nc1nc(Cl)cc(OC)n1.[Na+]	55	7.26
> 100	> 100	COC(=O)c1ccccc1OS(=O)(=O)[N-]C(=O)Nc1nc(I)cc(OC)n1.[Na+]	66	7.18
> 100	> 100	CCCOC(=O)c1ccccc1OS(=O)(=O)[N-]C(=O)Nc1nc(C)cc(Cl)n1.[Na+]	35500	–
25	10	CCOC(=O)c1ccccc1OS(=O)(=O)[N-]C(=O)Nc1nc(C)cc(OC)n1.[Na+]	7.1	8.16
> 100	> 100	CCCOC(=O)c1ccccc1OS(=O)(=O)[N-]C(=O)Nc1nc(OC)cc(OC)n1.[Na+]	260	6.59
> 100	> 100	CCCOC(=O)c1ccccc1OS(=O)(=O)[N-]C(=O)Nc1nc(I)cc(OC)n1.[Na+]	862	6.06
> 100	> 100	COc1cc(C)nc(NC(=O)[N-]S(=O)(=O)Oc2ccccc2C(=O)OCCI)n1.[Na+]	610	6.21
> 100	40	CCOC(=O)c1ccccc1OS(=O)(=O)[N-]C(=O)Nc1nc(Cl)cc(OC)n1.[Na+]	7.5	8.12
> 100	> 100	CCCOC(=O)c1ccccc1OS(=O)(=O)[N-]C(=O)Nc1nc(C)cc(OC)n1.[Na+]	1490	–
> 100	> 100	COc1cc(I)nc(NC(=O)[N-]S(=O)(=O)Oc2ccccc2C(=O)OCCCl)n1.[Na+]	740	6.13
> 100	> 100	COc1cc(OC)nc(NC(=O)[N-]S(=O)(=O)Oc2ccccc2C(=O)OCCI)n1.[Na+]	95	7.02
> 100	> 100	COc1cc(Br)nc(NC(=O)[N-]S(=O)(=O)Oc2ccccc2C(=O)OCCI)n1.[Na+]	980	6.01
> 100	> 100	CCCOC(=O)c1ccccc1OS(=O)(=O)[N-]C(=O)Nc1nc(Cl)cc(OC)n1.[Na+]	235	6.62
> 100	> 100	COc1cc(Cl)nc(NC(=O)[N-]S(=O)(=O)Oc2ccccc2C(=O)OCCI)n1.[Na+]	547	6.26
100	10	CCOC(=O)c1ccccc1OS(=O)(=O)[N-]C(=O)Nc1nc(I)cc(OC)n1.[Na+]	11.5	7.91
